Experimental data as given in patent US20200268804A1, “METHODS AND COMPOSITIONS TO MAINTAIN STEM CELL QUIESCENCE” (The Board of Trustees of the Leland Stanford Junior …, priority 2016, published 2020).

System: quiescent MuSCs
Experiment: Q-RT-PCR screening of candidate molecules for promotion of MuSC quiescence
Assay type: cell-based, mouse
Conditions: 500 quiescent MuSCs cultured 2.5 days with the molecule; gene expression signature
From the text: FIG. 8. Screening of molecules titrated at different concentrations. Heat map analysis of gene expression profiles obtained from MuSCs cultured in different concentrations of candidate molecules. In 96 well plates, 500 MuSCs were directly isolated by FACS and cultured in the presence of the candidate molecules titrated at different concentrations. After 2.5 days, cells were collected for combinatorial Q-RT-PCR to screen for the conditions that result mostly closely resemble freshly isolated MuSCs based on the gene expression profiles. A heat map for absolute deviations from expression levels of freshly isolated quiescent MuSCs (QSC) is shown. On the X axis, the molecules tested and the different dilutions employed from the working concentrations are indicated as in FIG. 16. On the Y axis the names of the genes that were tested are listed. The gene names were organized in general functional groups. Each functional group is based on the main function and role in MuSCs.
Knowing that quiescent MuSCs have a unique transcriptional signature, we employed combinatorial QRT-PCR to screen for molecules that, when added to the medium, would promote MuSC quiescence. […]
Single Cell Q-RT-PCR. […] Biomark data was analyzed using Q-RT-PCR Analysis software (Fluidigm). […] For each amplicon, a limit of detection (LOD) was determined by running 10-fold serial dilutions of embryonic cDNA in 6 replicates. […]

With Nc1nc(Nc2ccc(S(N)(=O)=O)cc2)nn1C(=O)c1c(F)cccc1F [JMJ-7706621] as the compound, how does the quiescence-promoting activity read?
The quiescence-promoting activity was “novel quiescence-promoting activity”.
